Results from US10576096B2, “Tumor-selective combination therapy” (priority 2013, dated 2020).
≈ marks a conversion by molar mass, not a printed value. Where “and” joins values, the source holds several entries; their conditions need not be identical. Equal entries are not always repeated.

Assays:
[1] = tested on: A549 NSCLC cells or MiaPaCa-2 pancreatic cancer cells; experiment: Sensitivity enhancement: PARP1 inhibitors combined with β-lapachone or DNQ, relative survival; type: cell-based, human; conditions: 10 = one log kill, 100 = two logs kill; for Sensitivity Enhancement (change in survival) with Deoxynyboquinone (DNQ): nontoxic DNQ (0.02 μM A549, 0.025 μM MiaPaca-2) + optimal dose (15 μM) of PARP1 inhibitor; for Sensitivity Enhancement (change in survival) with β-Lapachone: nontoxic β-lapachone (3 μM A549, 2 μM Mia Paca2) + optimal dose (15 μM) of PARP1 inhibitor
Procedure: Mia PaCa-2 cells were treated for 2 hours with the inhibitors noted in FIG. 30 and then with DNQ+the inhibitors (all at 15 μM) for 2 hours.

[2] = tested on: BRCA1−/− CAPAN-1 cells; experiment: AG014699 alone, synthetic lethality control; type: cell-based
[3] = tested on: A549 and Mia PaCa-2 cells; experiment: AG014699 alone, lethality in BRCA1 wild-type cancer cells; type: cell-based; conditions: drug alone
Excerpt: FIGS. 33A-D. AG014699 enhances the NQO1-dependent lethality of ß-lapachone in A549 NSCLC cells.
AG014699 enhances the NQO1-dependent lethality of ß-lapachone in A549 NSCLC cells (FIG. 33).

[4] = tested on: PARP1; experiment: PAR formation (PARP1 inhibition) in cells treated with NQO1 bioactivatable drug plus inhibitor; type: cell-based; conditions: inhibitors at 15 μM
[5] = in vivo; conditions: NOD/SCID, mouse, iv
[6] = tested on: NOD/SCID mice injected with 3LL-Luc cells; experiment: DNQ derivatives pilot study of maximum tolerated dose (MTD); conditions: 3 NOD/SCID mice
[7] = tested on: breast cancer cells; experiment: IB-DNQ (DNQ87) lethality in breast cancer cells; type: cell-based; conditions: NQO1-dependent
Excerpt: It is effective against breast cancer cells in an NQO1-dependent manner, as well as triple-negative breast cancer cells (A-F, for various cell types).
Unlike β-lapachone (ß-lap), efficacy of DNQ87 increases in an NQO1-dependent manner and the therapeutic window is larger (FIG. 14). […] (C) PARP1 hyperactivation caused by DNQ87 exposure measured by PAR-PARP1 formation, highlighted by μ-calpain-mediated p53 cleavage (C) and atypical cleavage of PARP1 to ^˜60 kDa proteolytic fragments during cell death (D). DNQ87 also causes DNA lesions (DNA double strand breaks) in a delayed manner, monitored by gamma-H2AX, phosphorylation of ATM at ser1981, and phosphorylation of DNA-PKcs at site Thr1892 (FIG. 16).

[8] = Formulation of DNQ compounds in HPβCD (solubility, solution stability); type: physicochemical
Excerpt: This same neutral solution of DNQ in HPβCD cannot be made directly (i.e. without pH adjustment). […] The only proton on DNQ that might reasonably be deprotonated in aqueous base is the N—H. Although the acidity of the N—H bond of DNQ has not been measured, it has been measured for a derivative of DNQ and found to have a pKa of 8.0.
The protocol for formulating DNQ compounds in HPβCD is as follows: the DNQ compound is slurried in a 20% solution of HPβCD in pH 7.4 PBS and the pH is then increased by the addition of 10 M NaOH to induce dissolution of the DNQ compound. The pH is returned to pH 7.5-8.0 by the careful addition of 1 M HCl. A 3.3 mM solution of the DNQ compound can be made by this method which is stable at least 24 hours. This represents a 30-fold increase in solubility of DNQ over PBS alone. We initially chose a 20% HPβCD solution.

[9] = Aqueous solubility in PBS pH 7.4 by LC-MS; type: physicochemical; conditions: pH 7.4 PBS, 30 min sonication, filtered
Procedure: The aqueous solubility of DNQ at pH 7.4 in phosphate buffered saline (PBS) was measured by LC-MS. DNQ was sonicated for 30 minutes in PBS then undissolved solid was removed by filtration through a 0.45 μm syringe filter and the filtrate was analyzed by LC-MS (λ=275 nm, ESI-TOF in negative mode). The optimal sonication time was determined by sonicating DNQ for 1, 5, 10, and 30 minutes. While the concentration of DNQ in solution increased substantially between 1, 5, and 10 minutes, there was only a minor difference between 10 and 30 minutes. During the 30 minute sonication the water bath warmed to 45° C. (samples were cooled to room temperature before filtration). A calibration curve was generated from 1-100 μM by dissolving DNQ in methanol to a concentration of 500 μM and making dilutions of this stock in 80:20 water:methanol. The calibration curve (measure by UV absorbance) was linear over this range; 1 μM was approximately the limit of detection. […] The solution was very pale yellow.

[10] = tested on: NOD/SCID mice injected with 3LL-Luc cells; conditions: mouse, in vivo, iv
[11] = tested on: Mia Paca2 pancreatic cancer cells; experiment: Methoxyamine plus ß-lapachone lethality (colony forming assays); type: cell-based; conditions: nonlethal doses of methoxyamine
Procedure: FIGS. 9A-F. Methoxyamine (MeOX) enhances β-lap-induced NQO1-driven lethality. Mia Paca-2 cells were treated with indicated doses of β-lap+/−MeOX (12 mM), or β-lap alone for 2 hours. Endpoints examined: (A) Colony forming assays show synergy of MeOX+ß-lap; (B) MeOX treatment modifies AP sites induced by β-lap in Mia Paca-2 cells; (C) MeOX enhances β-lap-induced ATP loss; (D) MeOX blocks ATP recovery after sublethal β-lap doses; (E) β-lap+MeOX co-treatment enhances γH2AX foci formation. […] Dicoumarol (DIC, 50 μM, 2 h) blocked synergy.
(§1) B and C, Methoxyamine (MeOX) is an AP-site modifying chemical that is nontoxic to >100 mM as measured by relative survival and ATP loss. Optimal concentrations in combination with NQO1 bioactivatable drugs are between 6-12 mM. FIG. 21 illustrates Proof of Principle studies. A. Methoxyamine (MeOX) augments ß-lapachone ß-lap)-induced lethality in MiaPaca2 pancreatic cancer cells. B. Addition of MeOX modifies AP sites and therefore decreases signal of AP site formation in ß-lap+MeOX exposed cells. MeOX dose was 12 mM, ß-lap Dose was 6 μM. C,D. XRCC1 is a scaffolding protein that enables base excision repair (BER). Elimination of XRCC1 causes elevated AP sites and DNA single strand breaks, at which PARP1 can bind and become activated/hyperactivated. Knockdown of XRCC1 (C) enhances the lethality of ß-lapachone treatment.

[12] = tested on: Mia Paca2 pancreatic cancer cells; experiment: Methoxyamine alone: relative survival and ATP loss; type: cell-based
Procedure: FIGS. 20A-C. Determination of lethal vs. sublethal doses of methoxyamine (MeOX or MX, as indicated); A, MeOX with β-lapachone; B, MeOX; C, MeOX.
as §1

[13] = tested on: A549 NSCLC cells; experiment: ß-lapachone nontoxic vs. lethal dose, 2 h; type: cell-based, human
Procedure: FIGS. 46A-B. DNA damage via combinatorial treatment. (A) A549 NSCLC cells were pre-treated with or without Rucaparib (AG014699) and then exposed to a nontoxic dose of ß-lapachone (3 μM) at the concentrations indicated with or without the same PARP1 inhibitor. Cells were also exposed to a lethal dose of ß-lapachone (8 μM). Cells were then analyzed by neutral comet assays and DNA damage graphed in (B).
A459 NSCLC cells were pretreated with 15 μM AG014699 for 2 hours, then exposed to the same concentration of AG014699+various concentrations of DNQ87 for 2 hours as indicated (FIG. 45). Cells were then washed free of drug and relative survival performed as previously described (Huang et al., Cancer Res., 2012). Cells treated in this manner by nontoxic doses of ß-lap show enhanced DNA lesion formation, equivalent to DNA lesions formed by a lethal dose of ß-lap (8 μM, 2 hours) (FIG. 46).

[14] = tested on: Mia PaCa-2 cells; experiment: ß-lapachone lethal vs. sublethal doses, 2 h treatment; type: cell-based; conditions: listed as ß-lapachone
Procedure: MeOX, 12 mM; Dicoumarol, NQO1 inhibitor, 50 μM; ß-lapachone doses, indicated or 2 μM. For Mia Paca2 cells, 2-2.5 μM is sublethal, 6 μM is lethal. H2O2 dose was 500 μM, 2 h. All treatments were 2 h in duration. Cells were treated 2× with MeOX, as a 2 h pretreatment and then for 2 h in combination with ß-lap where applicable.
Addition of Methoxyamine (MeOX) prevents ATP recovery responses in ß-lap-treated Mia PaCa-2 cells at lethal and sublethal doses (FIG. 24). Lethal doses of ß-lapachone were 6 and 4 μM, whereas 3.0 and 2.5 μM are sublethal doses of ß-lapachone (ß-lap).

[15] = target: NQO1 (Homo sapiens, UniProt P15559); conditions: in two minutes; cited from earlier work
Chain of NQO1 (P15559 whole entry): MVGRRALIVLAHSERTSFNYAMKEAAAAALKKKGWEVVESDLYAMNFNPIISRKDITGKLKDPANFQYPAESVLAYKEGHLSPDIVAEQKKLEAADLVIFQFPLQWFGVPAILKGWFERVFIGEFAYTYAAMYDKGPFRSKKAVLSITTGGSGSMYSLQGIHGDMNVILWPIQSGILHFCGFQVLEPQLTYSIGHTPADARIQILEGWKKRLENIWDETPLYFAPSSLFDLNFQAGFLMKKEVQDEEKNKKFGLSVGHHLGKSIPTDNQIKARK

[16] = tested on: MIA PaCa-2 tumor xenografts; experiment: Antitumor efficacy in tumor xenografts; type: in vivo, mice; conditions: β-lap-HPβ-CD at 20 or 30 mg/kg, iv
Procedure: (A) Body weight changes of mice bearing orthotopic MIA PaCa-2 tumors. (B) Kaplan-Meier survival for pancreatic antitumor efficacy experiments described in (A). Log-rank analyses were performed comparing survival curves (***p<0.0001) for HPβ-CD vs. β-lap-HPβ-CD at 20 or 30 mg/kg, iv. Results are combined survival data from three similar experiments. (C) Bioluminescent images (BLI) of mice bearing spleen-implanted pancreas cancers before and after treatment with HPβ-CD or β-lap-HPβ-CD (Arq761) at 20 or 30 mg/kg, iv. (D) Quantification of pancreatic tumor burden. BLI (photons per second) were determined before and 12 days post-therapy with HPβ-CD or β-lap-HPβ-CD at 20 or 30 mg/kg, iv. Results are means, +SE (n=5). Student's t tests (***p<0.005) were performed comparing HPβ-CD vs. β-lap-HPβ-CD at 20 or 30 mg/kg, iv. V, Vehicle (HPβ-CD).
Altering BER or SSB repair can enhance NQO1 bioactivatable drug efficacy in a tumor-selective manner. siRNA-mediated knockdown of the Ogg1 glycosylase renders s-lap-treated pancreatic cancer cells resistant to ß-lapachone (FIG. 6), however NQO1 bioactivatable drugs cause SSBs and base lesions in a tumor-specific manner, thus they can be used to make DNA repair inhibitors tumor-selective (FIG. 7). PARP1 inhibitors synergize with NQO1 bioactivatable drugs for enhanced efficacy in NQO1+ cancer cells, such as pancreatic cancer cells (FIG. 8). […]

## C[C@]1(c2nc3c(C(N)=O)cccc3[nH]2)CCCN1 [ABT-888, Veliparib]
[1]
  Sensitivity Enhancement (change in survival) with Deoxynyboquinone (DNQ): 15
  Sensitivity Enhancement (change in survival) with β-Lapachone: 10

## CN(C)Cc1ccc(-c2nc3cccc4c3n2CCNC4=O)cc1 [AG14361]
[1]
  Sensitivity Enhancement (change in survival) with Deoxynyboquinone (DNQ): 10
  Sensitivity Enhancement (change in survival) with β-Lapachone: 5

## CNCc1ccc(-c2[nH]c3cc(F)cc4c3c2CCNC4=O)cc1 [AG-014699, Rucaparib]
[2]
  lethality of drug alone: synthetic lethality
[3]
  response of BRCA1 wild-type cells to the PARP1 inhibitor alone: completely resistant
[1]
  Sensitivity Enhancement (change in survival) with Deoxynyboquinone (DNQ): 100
  Sensitivity Enhancement (change in survival) with β-Lapachone: 10

## O=C(c1cc(Cc2n[nH]c(=O)c3ccccc23)ccc1F)N1CCN(C(=O)C2CC2)CC1 [AZD2281, Olaparib]
[1]
  Sensitivity Enhancement (change in survival) with Deoxynyboquinone (DNQ): 20
  Sensitivity Enhancement (change in survival) with β-Lapachone: 10

## NC(=O)c1ccc(I)c([N+](=O)[O-])c1 [BSI-201, Iniparib]
[1]
  Sensitivity Enhancement (change in survival) with Deoxynyboquinone (DNQ): 4
  Sensitivity Enhancement (change in survival) with β-Lapachone: 3
[4]
  inhibition of PAR formation: not an efficacious PARP1 inhibitor

## Cc1cc(=O)[nH]c2c1C(=O)c1c(C)cc(=O)n(CCC(C)(C)C)c1C2=O [Compound 9-251]
[5]
  MTD at 5 injections, 1x every other day: 20 mg/kg
[6]; 20 mg/kg
  Dead mice (5 IV.): 0

## CCCn1c2c(c(C)cc1=O)C(=O)c1c(C)cc(=O)[nH]c1C2=O [Compound 10-41]
[5]
  MTD at 5 injections, 1x every other day: 7 mg/kg
[6]; 15 mg/kg
  Dead mice (5 IV.): 3

## Cc1cc(=O)[nH]c2c1C(=O)c1c(C)cc(=O)n(CC(C)C)c1C2=O [Compound 87]
[5]
  MTD at 5 injections, 1x every other day: ~16 mg/kg
[7]
  effective doses relative to ß-lapachone and DNQ: works at much lower doses versus ß-lapachone and at doses equivalent to the parental DNQ compound
[6]; 14 mg/kg
  Dead mice (5 IV.): 0

## CCc1cc(=O)n(C)c2c1C(=O)c1c(C)cc(=O)[nH]c1C2=O [Compound 107]
[5]
  MTD at 5 injections, 1x every other day: 8 mg/kg
[6]; 10 mg/kg
  Dead mice (5 IV.): 1

## Cc1cc(=O)[nH]c2c1C(=O)c1c(C)cc(=O)n(C)c1C2=O [DNQ, Deoxynyboquinone]
[8]; 3.3 mM in 20% HPβCD
  stability of HPβCD solution: at least 24 hours
[8]; 20% HPβCD
  increase in solubility over PBS alone: 30 fold
[8]; 20% HPβCD in pH 7.4 PBS, pH raised with NaOH then returned to 7.5-8.0
  concentration of solution in HPβCD: 3300 µM
[8]; 40% HPβCD, extrapolated from linear increase with HPβCD
  concentration of solution in HPβCD: 6600 µM
[6]; 7.5 mg/kg
  Dead mice (5 IV.): 2
[9]
  solubility in PBS: 115 µM (≈ 32.7 µg/mL)
[10]
  MTD: 6

## O=c1[nH]cnc2c1ncn2[C@@H]1O[C@H](CO)[C@@H](O)[C@H]1O [INO-1001]
[1]
  Sensitivity Enhancement (change in survival) with Deoxynyboquinone (DNQ): 10
  Sensitivity Enhancement (change in survival) with β-Lapachone: 7

## CON [Methoxyamine, methoxyamine]
[11]
  lethality in combination with ß-lapachone: synergistic lethality
[12]
  optimal concentration in combination with NQO1 bioactivatable drugs: 6 to 12 mM
[12]; measured by relative survival and ATP loss
  nontoxic concentration: > 100 mM

## CC1(C)CCC2=C(O1)c1ccccc1C(=O)C2=O [β-Lapachone, β-lapachone]
[13]
  nontoxic dose: 3 µM
[13]; 2 hours
  lethal dose: 8 µM
[14]
  sublethal dose: 2 to 2.5 µM and 3.0 µM and 2.5 µM
[15]
  superoxide generated per mole of compound: ~120 mol
[16]
  antitumor efficacy: significant antitumor efficacy
